Measurements published in patent US9314485B2, “Use of PI3K M-TOR and AKT inhibitors to induce FOXP3 expression and generate regulatory T cells” (Medical Research Council, priority 2006, dated 2016).
pIC50: −log10 of the molar value.

Legend:
[1] = tested on: naive CD62LhiCD4+CD25− LN T cells; assay: Foxp3 induction in newly activated naive CD4 T cells (intracellular staining); assay type: cell-based, mouse; details: for percentage of cells expressing Foxp3: added 18 hours after activation with TCR signal deprivation, read within 24-48 hours; for Foxp3 expression in control cultures, TCR signal deprived cultures subtracted: serum free AIM-V medium, without anti TGFβ and SB431542, 24-48 hours / 2 days; for effect on Foxp3 expression (in words): newly activated T cells deprived of TCR signals
Experimental: Mouse strains, cell sorting and culture Animal work was carried out according the Animals (Scientific Procedures) Act, UK. Lymph node (LN) cells were stained, analysed and sorted by flow cytometry as described (Cobb et al 2005 J. Exp. Med. 201: 1367-1373). Intracellular staining for Foxp3 protein was done as advised by the manufacturers (eBiosciences.com). The phosphorylation syatus of S6 ribosomal protein was determined using anti pS6 Ser235/236 (Cellsignaling cat.no. 2211, http://www.cellsignal.com) using the eBioscience Foxp3 staining kit and anti rabbit IgG-FITC or IgG-Cy5 (Jackson Immunoresearch). For induction of Foxp3 expression, sorted LN CD4+ CD25− CD62Lhi T cells were cultured at 1-3×10^6/ml with plate bound anti-TCRβ. […] After 18 hours the cells were either left in place for continued TCR stimulation or moved to uncoated wells with the indicated additives. To assess regulatory function, CD4 T cells cultured as indicated were titrated into round bottom wells containing either 1×10^5 CFSE labeled total LN cells or 5×10^4 CFSE labeled CD4^+ CD25^− T cells and 1×10^5 mitomycin-C treated (25 μg/ml, 20 min, 37° C.) T cell depleted splenocytes with the indicated concentrations of anti CD3 (2C11, Pharmingen). CD4 T cell CFSE profiles were recorded between 48 and 72 hours later.
Mice, Cell Sorting and Culture. Animal work was carried out according to the Animals (Scientific Procedures) Act, UK. Lymph node (LN) cells or thymocytes from wild type were stained, analysed and sorted by flow cytometry as described (Thompson et al., 2007 Immunity VoI 26 pp 335-344) from wild type (C57BL/6, BALB/c or C57BL/6×129) mice or from Rag1 deficient H2^b AND TCR transgenic mice. Antigen presenting cells were derived from bone marrow in the presence of GM-CSF and incubated with antigenic peptide. Intracellular staining for Foxp3 protein was done as advised by the manufacturers (eBiosciences.com). The phosphorylation status of S6 ribosomal protein was determined using anti pS6 Ser235/236 (Cell Signaling cat.no. 2211, http://www.cellsignal.com) using the eBioscience Foxp3 staining kit and anti rabbit IgG-FITC or IgG-Cy5 (Jackson ImmunoResearch). […] After 18 hours the cells were either left in place for continued TCR stimulation or moved to uncoated wells with the indicated additives. To assess regulatory function, CD4 T cells cultured as indicated were titrated into round bottom wells containing either 1×10^5 CFSE labeled total LN cells or 5×10^4 CFSE labeled CD4^+CD25^− T cells and 1×10^5 mitomycin-C treated (25 μg/ml, 20 min, 37° C.) T cell depleted splenocytes with the indicated concentrations of anti CD3 (2C11, Pharmingen). CD4 T cell CFSE profiles were recorded between 48 and 72 hours later.

mTORC1 = mTORC1 (Homo sapiens, UniProt P42345); details: unit inferred; read-out: Specificity for mTORC1 (IC50 determined in vitro); cited from earlier work
PI4KIIIα = PI4KIIIα (Homo sapiens, UniProt P42356); details: unit inferred; read-out: Specificity for PI4KIIIα (IC50 determined in vitro); cited from earlier work
DNA-PK = DNA-PK (Homo sapiens, UniProt P78527); details: unit inferred; read-out: Specificity for DNA-PK (IC50 determined in vitro); cited from earlier work
PI4P5KIα [2] = details: second PI4P5KIα line; unit inferred; read-out: Specificity for PI4P5KIα (IC50 determined in vitro); cited from earlier work
ATR = ATR (Homo sapiens, UniProt Q13535); details: unit inferred; read-out: Specificity for ATR (IC50 determined in vitro); cited from earlier work
ATM = ATM (Homo sapiens, UniProt Q13315); details: unit inferred; read-out: Specificity for ATM (IC50 determined in vitro); cited from earlier work
PI3KC2α = PI3KC2α (Homo sapiens, UniProt O00443); details: unit inferred; read-out: Specificity for PI3KC2α (IC50 determined in vitro); cited from earlier work
PI3KC2β = PI3KC2β (Homo sapiens, UniProt O00750); details: unit inferred; read-out: Specificity for PI3KC2β (IC50 determined in vitro); cited from earlier work
PI5P4KIIβ = molecular target: T1, PI5P4KIIβ (Homo sapiens, UniProt P78356); details: unit inferred; read-out: Specificity for PI5P4KIIβ (IC50 determined in vitro); cited from earlier work
T1 sequence (P78356 1-416): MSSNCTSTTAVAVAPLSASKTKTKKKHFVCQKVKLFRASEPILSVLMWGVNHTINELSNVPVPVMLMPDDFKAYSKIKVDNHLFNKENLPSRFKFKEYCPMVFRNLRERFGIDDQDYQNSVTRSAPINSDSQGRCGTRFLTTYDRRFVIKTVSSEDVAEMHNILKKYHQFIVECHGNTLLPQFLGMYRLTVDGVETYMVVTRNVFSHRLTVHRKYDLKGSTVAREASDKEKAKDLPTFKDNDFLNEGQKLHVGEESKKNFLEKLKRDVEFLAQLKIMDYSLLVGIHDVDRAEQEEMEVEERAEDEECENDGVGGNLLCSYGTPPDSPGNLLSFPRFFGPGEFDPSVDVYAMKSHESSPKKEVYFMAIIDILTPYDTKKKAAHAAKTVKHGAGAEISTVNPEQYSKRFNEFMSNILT

PI4KIIα = PI4KIIα (Homo sapiens, UniProt Q9BTU6); details: unit inferred; read-out: Specificity for PI4KIIα (IC50 determined in vitro); cited from earlier work
PI4P5KIα [3] = molecular target: PI4P5KIα (Homo sapiens, UniProt Q99755); details: first PI4P5KIα line; unit inferred; read-out: Specificity for PI4P5KIα (IC50 determined in vitro); cited from earlier work
PI4KIIIβ = PI4KIIIβ (Homo sapiens, UniProt Q9UBF8); details: unit inferred; read-out: Specificity for PI4KIIIβ (IC50 determined in vitro); cited from earlier work
[4] = serum free AIM-V, anti TGFβ 3 μg/ml, SB431542 20 μM

Sequence of PI4KIIIα (P42356 whole entry): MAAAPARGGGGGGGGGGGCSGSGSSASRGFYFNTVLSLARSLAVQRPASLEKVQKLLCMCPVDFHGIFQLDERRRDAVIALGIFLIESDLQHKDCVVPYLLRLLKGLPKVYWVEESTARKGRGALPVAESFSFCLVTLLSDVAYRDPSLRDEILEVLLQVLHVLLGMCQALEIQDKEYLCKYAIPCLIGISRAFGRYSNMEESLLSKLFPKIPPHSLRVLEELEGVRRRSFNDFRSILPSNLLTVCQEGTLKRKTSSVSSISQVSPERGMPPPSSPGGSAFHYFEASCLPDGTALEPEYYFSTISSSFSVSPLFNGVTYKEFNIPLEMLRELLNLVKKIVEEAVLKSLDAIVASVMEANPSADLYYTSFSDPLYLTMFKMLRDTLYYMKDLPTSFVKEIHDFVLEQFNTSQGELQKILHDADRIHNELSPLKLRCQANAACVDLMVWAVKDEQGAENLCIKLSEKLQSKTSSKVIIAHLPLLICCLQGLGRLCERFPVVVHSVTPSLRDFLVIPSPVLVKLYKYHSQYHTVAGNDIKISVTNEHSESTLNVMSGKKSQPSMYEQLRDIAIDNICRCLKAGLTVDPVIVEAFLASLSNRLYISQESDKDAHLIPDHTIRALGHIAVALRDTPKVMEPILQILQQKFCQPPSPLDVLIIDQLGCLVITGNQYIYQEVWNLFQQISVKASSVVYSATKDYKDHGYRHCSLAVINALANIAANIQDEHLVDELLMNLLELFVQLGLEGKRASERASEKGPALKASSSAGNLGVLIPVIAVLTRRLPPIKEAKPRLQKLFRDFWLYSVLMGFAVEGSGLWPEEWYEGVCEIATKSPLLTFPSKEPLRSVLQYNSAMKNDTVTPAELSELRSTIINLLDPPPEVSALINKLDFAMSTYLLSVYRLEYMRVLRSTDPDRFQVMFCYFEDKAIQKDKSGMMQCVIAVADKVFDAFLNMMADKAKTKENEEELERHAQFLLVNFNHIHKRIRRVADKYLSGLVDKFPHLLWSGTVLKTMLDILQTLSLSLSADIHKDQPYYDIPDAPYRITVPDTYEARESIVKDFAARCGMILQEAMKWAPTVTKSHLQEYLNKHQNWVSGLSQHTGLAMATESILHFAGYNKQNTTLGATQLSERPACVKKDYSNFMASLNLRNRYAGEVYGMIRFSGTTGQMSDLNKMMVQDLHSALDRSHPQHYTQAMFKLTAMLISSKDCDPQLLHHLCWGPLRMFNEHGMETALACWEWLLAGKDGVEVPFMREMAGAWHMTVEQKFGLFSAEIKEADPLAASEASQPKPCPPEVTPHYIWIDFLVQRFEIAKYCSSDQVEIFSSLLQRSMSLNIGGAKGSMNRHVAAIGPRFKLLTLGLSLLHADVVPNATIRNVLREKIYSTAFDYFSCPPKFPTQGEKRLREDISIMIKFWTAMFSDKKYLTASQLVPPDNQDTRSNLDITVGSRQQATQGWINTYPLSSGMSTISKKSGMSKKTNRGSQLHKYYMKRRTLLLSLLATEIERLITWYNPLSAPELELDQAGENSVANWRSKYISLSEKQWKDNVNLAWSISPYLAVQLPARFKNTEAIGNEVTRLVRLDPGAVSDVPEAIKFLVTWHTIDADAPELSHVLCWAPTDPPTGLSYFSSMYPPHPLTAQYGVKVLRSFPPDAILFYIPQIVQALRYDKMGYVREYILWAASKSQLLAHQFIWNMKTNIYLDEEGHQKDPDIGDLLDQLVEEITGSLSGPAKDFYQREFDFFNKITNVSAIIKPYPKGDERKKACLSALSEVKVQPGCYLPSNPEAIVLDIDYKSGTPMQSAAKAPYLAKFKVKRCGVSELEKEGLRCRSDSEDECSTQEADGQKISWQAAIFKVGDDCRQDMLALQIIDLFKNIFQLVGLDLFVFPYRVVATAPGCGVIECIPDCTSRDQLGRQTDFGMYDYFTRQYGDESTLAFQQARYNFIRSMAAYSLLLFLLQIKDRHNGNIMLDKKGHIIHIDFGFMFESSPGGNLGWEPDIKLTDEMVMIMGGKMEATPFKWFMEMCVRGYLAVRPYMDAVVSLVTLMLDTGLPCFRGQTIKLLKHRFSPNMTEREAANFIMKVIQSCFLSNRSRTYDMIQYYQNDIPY
Sequence of ATM (Q13315 whole entry, species assumed): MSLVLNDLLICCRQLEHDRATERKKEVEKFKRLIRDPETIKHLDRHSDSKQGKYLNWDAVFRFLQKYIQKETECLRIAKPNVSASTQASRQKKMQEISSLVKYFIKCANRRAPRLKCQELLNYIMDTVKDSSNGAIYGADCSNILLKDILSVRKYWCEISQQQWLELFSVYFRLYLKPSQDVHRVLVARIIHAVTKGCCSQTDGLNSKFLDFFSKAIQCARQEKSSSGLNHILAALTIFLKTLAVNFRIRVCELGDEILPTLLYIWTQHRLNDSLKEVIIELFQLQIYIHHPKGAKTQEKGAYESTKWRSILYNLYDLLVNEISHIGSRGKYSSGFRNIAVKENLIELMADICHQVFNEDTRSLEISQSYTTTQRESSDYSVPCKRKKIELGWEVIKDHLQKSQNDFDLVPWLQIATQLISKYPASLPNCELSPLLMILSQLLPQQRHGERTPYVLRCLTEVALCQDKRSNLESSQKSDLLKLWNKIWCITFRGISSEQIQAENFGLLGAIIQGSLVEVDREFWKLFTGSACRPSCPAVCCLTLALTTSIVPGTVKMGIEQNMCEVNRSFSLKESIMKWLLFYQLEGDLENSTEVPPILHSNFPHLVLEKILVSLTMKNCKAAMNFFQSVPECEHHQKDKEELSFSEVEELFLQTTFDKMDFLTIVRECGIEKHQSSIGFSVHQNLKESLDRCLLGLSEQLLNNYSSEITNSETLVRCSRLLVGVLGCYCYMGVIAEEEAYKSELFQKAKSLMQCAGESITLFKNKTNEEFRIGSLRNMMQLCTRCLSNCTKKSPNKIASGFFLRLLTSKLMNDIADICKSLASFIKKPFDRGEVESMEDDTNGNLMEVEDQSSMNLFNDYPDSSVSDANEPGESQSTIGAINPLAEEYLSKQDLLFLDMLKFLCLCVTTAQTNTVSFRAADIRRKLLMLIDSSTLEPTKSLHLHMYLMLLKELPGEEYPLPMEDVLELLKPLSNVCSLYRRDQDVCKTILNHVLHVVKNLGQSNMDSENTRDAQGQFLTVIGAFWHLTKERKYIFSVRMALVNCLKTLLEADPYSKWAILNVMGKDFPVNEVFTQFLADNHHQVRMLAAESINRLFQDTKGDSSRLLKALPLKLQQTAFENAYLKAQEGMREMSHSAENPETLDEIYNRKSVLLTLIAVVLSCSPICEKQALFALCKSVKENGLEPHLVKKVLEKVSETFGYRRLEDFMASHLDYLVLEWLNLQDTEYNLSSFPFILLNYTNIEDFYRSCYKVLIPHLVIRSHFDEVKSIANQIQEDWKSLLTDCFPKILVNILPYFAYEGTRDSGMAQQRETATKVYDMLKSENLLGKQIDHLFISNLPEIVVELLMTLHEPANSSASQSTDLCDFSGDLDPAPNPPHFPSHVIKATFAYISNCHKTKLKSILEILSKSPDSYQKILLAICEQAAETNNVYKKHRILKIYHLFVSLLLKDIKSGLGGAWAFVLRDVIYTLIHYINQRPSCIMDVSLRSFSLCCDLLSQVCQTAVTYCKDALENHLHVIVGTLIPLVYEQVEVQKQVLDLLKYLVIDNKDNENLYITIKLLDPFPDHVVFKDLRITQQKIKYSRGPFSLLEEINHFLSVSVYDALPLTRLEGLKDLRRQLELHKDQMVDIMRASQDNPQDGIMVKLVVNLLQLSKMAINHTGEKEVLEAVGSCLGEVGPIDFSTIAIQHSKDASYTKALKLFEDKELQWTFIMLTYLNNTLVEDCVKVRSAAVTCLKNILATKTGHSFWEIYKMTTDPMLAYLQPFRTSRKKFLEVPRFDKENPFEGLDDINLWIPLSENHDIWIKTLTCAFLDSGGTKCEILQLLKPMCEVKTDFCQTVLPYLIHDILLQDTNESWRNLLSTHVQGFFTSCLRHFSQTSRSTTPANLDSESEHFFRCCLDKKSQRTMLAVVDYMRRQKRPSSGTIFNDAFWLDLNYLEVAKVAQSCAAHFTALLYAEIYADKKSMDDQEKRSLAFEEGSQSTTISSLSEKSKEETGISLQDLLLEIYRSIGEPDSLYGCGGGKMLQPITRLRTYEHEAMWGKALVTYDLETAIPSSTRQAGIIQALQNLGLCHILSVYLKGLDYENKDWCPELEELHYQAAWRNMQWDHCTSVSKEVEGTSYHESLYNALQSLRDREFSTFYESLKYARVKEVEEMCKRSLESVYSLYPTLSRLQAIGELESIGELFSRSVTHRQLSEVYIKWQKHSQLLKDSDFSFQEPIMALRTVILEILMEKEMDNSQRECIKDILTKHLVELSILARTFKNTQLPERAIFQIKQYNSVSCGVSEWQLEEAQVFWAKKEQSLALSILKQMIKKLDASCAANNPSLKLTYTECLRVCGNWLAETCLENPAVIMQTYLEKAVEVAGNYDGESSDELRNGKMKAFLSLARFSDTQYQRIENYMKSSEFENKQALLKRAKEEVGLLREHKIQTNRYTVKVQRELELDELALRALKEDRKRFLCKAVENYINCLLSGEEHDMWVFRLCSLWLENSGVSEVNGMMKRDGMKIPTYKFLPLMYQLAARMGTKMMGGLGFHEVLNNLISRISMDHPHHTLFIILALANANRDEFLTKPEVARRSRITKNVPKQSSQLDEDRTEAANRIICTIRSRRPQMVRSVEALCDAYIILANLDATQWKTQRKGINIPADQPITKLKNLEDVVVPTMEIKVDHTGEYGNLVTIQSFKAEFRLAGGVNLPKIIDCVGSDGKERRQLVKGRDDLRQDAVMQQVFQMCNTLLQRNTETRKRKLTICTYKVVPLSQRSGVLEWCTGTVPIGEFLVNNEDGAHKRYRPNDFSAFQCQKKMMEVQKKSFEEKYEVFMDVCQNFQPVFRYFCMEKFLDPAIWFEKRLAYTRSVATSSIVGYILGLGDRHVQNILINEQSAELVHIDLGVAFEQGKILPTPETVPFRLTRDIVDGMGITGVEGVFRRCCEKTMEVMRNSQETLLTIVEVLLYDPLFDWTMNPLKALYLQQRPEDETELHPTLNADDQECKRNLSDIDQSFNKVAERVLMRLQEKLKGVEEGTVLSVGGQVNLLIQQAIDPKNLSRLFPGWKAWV

O=c1cc(N2CCNCC2)oc2c(-c3ccccc3)cccc12 [Ly303511, 2-piperazinyl-8-phenyl-4H-1-benzopyran-4-one]
percentage of cells expressing Foxp3 [1]: 6.6±3.0%

COc1ccc2c(c1OC)N=C(NC(=O)c1cccnc1)N1CCN=C21 [PIK90]
pIC50 (mTORC1): 5.98 | pIC50 (PI4KIIIα): 6.08 | pIC50 (DNA-PK): 7.89 | pIC50 (PI4P5KIα [2]): < 4.00 | effect on Foxp3 expression at 0.1 μM ([1]; 0.1 μM): strongly induced Foxp3 | Foxp3 expression in control cultures, TCR signal deprived cultures subtracted [1]: 36.0±12.9% | pIC50 (ATR): 4.82 | pIC50 (ATM): 6.21 | pIC50 (PI3KC2α): 7.33 | pIC50 (PI3KC2β): 7.19 | pIC50 (PI5P4KIIβ): < 4.00 | pIC50 (PI4KIIα): < 4.00 | pIC50 (PI4P5KIα [3]): < 4.00 | pIC50 (PI4KIIIβ): 5.51

CC(C)C[C@H](NC(=O)[C@H](Cc1ccccc1)C[C@@H](O)[C@H](Cc1ccccc1)NC(=O)OC(C)(C)C)C(=O)N[C@@H](Cc1ccccc1)C(N)=O [L-685458]
effect on Foxp3 expression (in words) [1]: None of these detectably enhanced the expression of Foxp3

CO[C@H]1C[C@@H]2CC[C@@H](C)[C@@](O)(O2)C(=O)C(=O)N2CCCC[C@H]2C(=O)O[C@H]([C@H](C)C[C@@H]2CC[C@@H](O)[C@H](OC)C2)CC(=O)[C@H](C)/C=C(\C)[C@@H](O)[C@@H](OC)C(=O)[C@H](C)C[C@H](C)/C=C/C=C/C=C/1C [rapamycin]
% Foxp3+ cells (nutrient deprivation experiment) ([1]; 18 hour activated CD4 T cells): 25 % Foxp3^+ | percentage of cells expressing Foxp3 [1]: 26.8±14.4% | Foxp3 expression in control cultures, TCR signal deprived cultures subtracted [1]: 28.6±9.0%

O=c1[nH]c2ccccc2n1C1CCN(Cc2ccc(-c3nc4cc5nc[nH]c5cc4nc3-c3ccccc3)cc2)CC1 [Akti-1/2]
effect on Foxp3 expression (in words) [1]: enhanced Foxp3 expression | effect on Foxp3 expression (in words) ([1]; listed as Akti 1/2): induces Foxp3 expression

NC(=O)c1ccc(-c2nc(-c3ccc4c(c3)OCO4)c(-c3ccccn3)[nH]2)cc1 [SB431542]
effect on Foxp3 induction by PI3K/mTOR inhibitors [1, 4]: had no effect | reduction of Foxp3 induction by TGFβ [1, 4]: 96%

Cc1ccc([N+](=O)[O-])cc1S(=O)(=O)N(C)/N=C/c1cnc2ccc(Br)cn12 [PIK75]
toxicity in the Foxp3 induction assay ([1]; over the duration of the assay): toxicity over the duration of our assay

COC[C@H]1OC(=O)c2coc3c2[C@@]1(C)C1=C(C3=O)[C@@H]2CCC(=O)[C@@]2(C)C[C@H]1OC(C)=O [Wortmannin]
percentage of cells expressing Foxp3 [1]: 17.3±5.3%

O=C1NC(=O)/C(=C\c2ccc3nccnc3c2)S1 [SA-605240]
effect on Foxp3 expression (in words) ([1]; listed as AS-605240): affected Foxp3 only at concentrations far in excess of its IC50 for p110γ

Oc1cccc(-c2nc(N3CCOCC3)c3oc4ncccc4c3n2)c1 [PI-103]
pIC50 (PI4KIIIα): < 4.00 | pIC50 (PI4P5KIα [2]): < 4.00 | increase in Foxp3 expressing cells over and above TCR deprivation alone ([1]; IC-87114 down to 0.01 μM): > 20% | effect on Foxp3 expression (in words) [1]: strongly induced Foxp3 | Foxp3 expression in control cultures, TCR signal deprived cultures subtracted [1]: 35.1±3.8% | pIC50 (ATR): 6.07 | pIC50 (ATM): 6.04 | pIC50 (PI3KC2α): ~6.00 | pIC50 (PI4KIIα): < 4.00
